Counter-ions that a name gives are not always drawn.

The source of these data is patent US20240122844A1, “CARRIER FOR SUSTAINED-RELEASE OF DRUG AND USE THEREOF” (KUNMING QINGCHENG HEALTHCARE TECH LTD., priority 2022, published 2024).

The data set in a line: Sustained release of metformin hydrochloride, ranitidine hydrochloride, vitamin B1 and benzalkonium chloride from carrier formulations into purified water, UV absorbance. Format: physicochemical. The following applies: released when absorbance is increased less than 0.01. The source says:
• 1) Test samples: formulation 5, formulation 6, formulation 7, formulation 8, formulation 9; • 2) Drug release medium: purified water (Wahaha®).
• 1) group F where the sample is 0.1990 g of formulation 6 and the medium is 30.11 g of purified water; • 2) group G where the sample is 0.2016 g of formulation 5 and the medium is 30.14 g of purified water; • 3) group H where the sample is 0.2087 g of formulation 7 and the medium is 30.11 g of purified water; • 4) group I where the sample is 0.2016 g of formulation 8 and the medium is 30.12 g of purified water; • 5) group J where the sample is 0.0975 g of formulation 9 and the medium is 30.18 g of purified water.
• 1) The test samples with different formulations were respectively introduced into 2 mL-syringes. 2) About 0.2 g of the test samples, but for benzalkonium chloride about 0.1 g of the test sample, were squeezed out from the syringes without a needle into 30 mL transparent bottles respectively. The tests samples in the bottles were accurately weighed. 3) 30.0 g of the drug release medium was added to each bottle. 4) The absorbance spectrum of the liquid in each bottle was scanned and the absorbance at the wavelength of 232 nm for metformin hydrochloride, 313 nm for ranitidine hydrochloride, 261 nm for vitamin B1, or 219 nm for benzalkonium chloride was measured every 24 hours. 5) In groups H, I and J, the purified water (Wahaha®) was used as the reference solution. In groups F and G, blank carriers in formulations 2 and 3 without metformin hydrochloride were used to prepare the reference solutions according to the above steps 1) to 3) of “4. Experimental method”. The liquids to be tested and the reference solutions of groups F and G were taken from the bottles with the carriers and put back to the bottles after the spectral scanning.
Take `CN(C)C(=N)N=C(N)N` [metformin hydrochloride]: the “Duration of release of the drug from the sustained-release carriers” value (from here on “Duration of release of the drug”) is on record as “about 3 days”.

On to `CNC(=C[N+](=O)[O-])NCCSCc1ccc(CN(C)C)o1` [ranitidine hydrochloride], for which the “Duration of release of the drug” value is recorded as “about 4 days”.

In the case of `Cc1ncc(C[n+]2csc(CCO)c2C)c(N)n1` [vitamin B1], the “Duration of release of the drug” value is on record as “about 4 days”.

As for benzalkonium chloride, the “Duration of release of the drug” value is “about 4 days”.
